From publication PMC10816875, “Synthesis, Characterization, Cytotoxicity, Cellular Imaging, Molecular Docking, and ADMET Studies of Piperazine-Linked 1,8-Naphthalimide-Arylsulfonyl Derivatives” (International Journal of Molecular Sciences, 2024)
Read-outs that look alike come from different tables or passages of the source.

Experiments:
Assay type in all cases: cell-based
[1] = CCK-8 viability of 3T3 fibroblast cells; details: mouse, read-out: % Cell viability against 3T3 fibroblast cell line
Procedure: (§1) For the anticancer studies, we established a stable cell culture for mouse breast cancer cell line 4T1 (ATCC: CRL-2539) cultured in the medium composition RPMI-1640 (Gibco; Grand Island, New York, USA), 10% fetal bovine serum (Gibco, Mexico), 4.5 g/L glucose, 1.5 g/L NaHCO3, 1 mM sodium pyruvate (Gibco; Grand Island, New York, NY, USA), and 1% penicillin–streptomycin (10,000 U/mL). We observed typical cell morphology after the IV passage of cells unfrozen from liquid nitrogen. Then, the cells were used for the subsequent anticancer experiment. A non-cancerous fibroblast cell line (3T3/NIH, ATCC: CRL-1658) was employed for the fluorescence imaging assay. The cells were cultured in 90% Dulbecco’s modified Eagle’s medium with 4 mM L-glutamine, 2 mM sodium pyruvate, 1% non-essential amino acid, 1% penicillin/streptomycin/amphotericin, and 10% fetal bovine serum.
(§2) A total of 5.0 × 10^4 of 3T3 cells per well in a 96-well plate were co-cultured with the 1.0 μg/mL of SA samples for 72 h. The viability of the 3T3 cells was assayed by using 10% CCK-8 reagent for 60 min to determine the toxicity of the SA samples. Afterwards, the cells were fixed with glutaraldehyde, followed by staining with 0.1 μg/mL of 4′,6-diamidino-2-phenylindole (DAPI) for the imaging of the nuclei. An inverted fluorescent optical microscope (Nikon, Eclipse Ti-S, Japan) was utilized. The fluorescent light source was Nikon Intensilight C-HGFI, and two fluorescent filter cubes (Ex = 340–380 nm, Em = 435–485 nm, corresponding to DAPI, and Ex = 465–495 nm, Em = 512–558 nm, corresponding to SA samples) were used to observe the distribution of SA samples in the cytoplasm. A scientific-grade CCD (Dhyana, model: 400 BSI, Tucsen, Fuzhou, China) was used to record the images. The magnification of the OM was 200×. The original fluorescent images were recorded in greyscale. ImageJ software (an open-source software, NIH Image, version 1.54f, Bethesda, MD, USA) was employed to merge and convert two fluorescent images into visible colors, e.g., blue for cell nuclei and green for SA1–SA7 samples.

[2] = tested on: mouse breast cancer 4T1 cell line; assay: MTT cytotoxicity assay on 4T1 breast cancer cells; details: 24 h
Procedure: as §1
A cellular viability assay was employed for the cytotoxicity of SA samples. […] A cell viability reagent (MTT, Sigma-Aldrich, St Louis, MI, USA) containing yellow tetrazolium salt (3-(4,5-dimethylthiazol-2-yl)-2,5-diphenyltetrazolium bromide) can be converted to purple formazan salt to indicate the cell viability. The 4T1 breast cancer cells were cultured at a density of 5.0 × 10^3 cells per well in 96-well plates. The cells were treated with SA samples for 24 h. The control groups were abbreviated as Cont (100% culture medium), representing normal cell culture; PC (20% DMSO and 80% culture medium), representing toxic condition; and NC (0.1% DMSO and 99.9%), representing minimum toxic condition. MTT reagent was added to 96-well plates to measure the cytotoxic effect of the SA compounds on 4T1 cells.

3T3 fibroblast cell line = assay: CCK-8 viability of 3T3 fibroblast cells; details: 1 μg/mL, 72 h
Procedure: as §1, §2

With O=C1c2cccc3cccc(c23)C(=O)N1CCN1CCN(S(=O)(=O)c2cccnc2)CC1 [SA6, 2-(2-(4-(Pyridin-3-ylsulfonyl)piperazin-1-yl)ethyl)-1H-benzo[de]isoquinoline-1,3(2H)-dione] the viability at 72 h, 1 μg/mL [1] was 82 to 95% and the “cytotoxicity against 4T1 breast cancer cells (in words)” value (“cytotoxicity” for short) [2] was “good anticancer activity”.

N#Cc1ccc(S(=O)(=O)N2CCN(CCN3C(=O)c4cccc5cccc(c45)C3=O)CC2)cc1 [SA7, 4-((4-(2-(1,3-Dioxo-1H-benzo[de]isoquinolin-2(3H)-yl)ethyl)piperazin-1-yl)sulfonyl)benzonitrile] showed a viability at 72 h, 1 μg/mL [1] of 82 to 95%.

With O=C1c2cccc3cccc(c23)C(=O)N1CCN1CCN(S(=O)(=O)c2ccc([N+](=O)[O-])cc2)CC1 [SA3, 2-(2-(4-((4-Nitrophenyl)sulfonyl)piperazin-1-yl)ethyl)-1H-benzo[de]isoquinoline-1,3 (2H)-dione] the viability at 72 h, 1 μg/mL [1] was 82 to 95%, the “% Cell viability against 3T3 fibroblast cell line” value (3T3 fibroblast cell line) was “relatively high viability” and the “cytotoxicity” value [2] was “low toxicity”.

In the case of O=C1c2cccc3cccc(c23)C(=O)N1CCN1CCN(S(=O)(=O)c2cccs2)CC1 [SA5, 2-(2-(4-(Thiophen-2-ylsulfonyl)piperazin-1-yl)ethyl)-1H-benzo[de]isoquinoline-1,3(2H)-dione], the viability at 72 h, 1 μg/mL [1] is reported as 82 to 95%, the “cytotoxicity” value [2] is reported as “most potent (cytotoxic) compound” and the viability at 0.7 µM ([2]; Mus musculus, 4T1, 0.7 μM) is reported as < 80%.

In the case of O=C1c2cccc3cccc(c23)C(=O)N1CCN1CCN(S(=O)(=O)c2ccccc2[N+](=O)[O-])CC1 [SA1, 2-(2-(4-((2-Nitrophenyl)sulfonyl)piperazin-1-yl)ethyl)-1H-benzo[de]isoquinoline-1,3 (2H)-dione], the viability at 72 h, 1 μg/mL ([1]; 3T3/NIH fibroblast cells (non-cancerous)) is reported as 82 to 95%.

O=C1c2cccc3cccc(c23)C(=O)N1CCN1CCN(S(=O)(=O)c2ccc3ccccc3c2)CC1 [SA2, 2-(2-(4-(Naphthalen-2-ylsulfonyl)piperazin-1-yl)ethyl)-1H-benzo[de]isoquinoline-1,3 (2H)-dione] gave a viability at 72 h, 1 μg/mL [1] of 82 to 95%.

Work on O=C1c2cccc3cccc(c23)C(=O)N1CCN1CCN(S(=O)(=O)c2ccc(Cl)s2)CC1 [SA4, 2-(2-(4-((5-Chlorothiophen-2-yl)sulfonyl)piperazin-1-yl)ethyl)-1H-benzo[de]isoquinoline-1,3(2H)-dione] yielded a viability at 72 h, 1 μg/mL [1] of 82 to 95%.
